Literature values, collected in patent US5580957A, “GnRH analogs” (The Salk Institute for Biological Studies, priority 1994, dated 1996).

Assays:
GnRH = conditions: background statement
receptor (GnRH) = target: T1, receptor (GnRH) (Homo sapiens, UniProt P30968); conditions: background statement
T1 sequence (P30968 1-328): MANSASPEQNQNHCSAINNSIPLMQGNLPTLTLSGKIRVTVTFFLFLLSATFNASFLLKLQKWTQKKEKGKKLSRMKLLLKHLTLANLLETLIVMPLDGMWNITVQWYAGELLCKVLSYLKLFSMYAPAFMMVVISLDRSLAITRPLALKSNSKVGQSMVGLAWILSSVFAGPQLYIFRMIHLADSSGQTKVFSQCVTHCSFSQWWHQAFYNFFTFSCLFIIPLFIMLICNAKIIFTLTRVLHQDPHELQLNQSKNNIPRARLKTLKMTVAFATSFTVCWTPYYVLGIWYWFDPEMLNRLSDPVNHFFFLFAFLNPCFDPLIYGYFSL

- binding strength to the receptor versus native hormone (receptor (GnRH)): greater binding strength
Substance: pGlu-His-Trp-Ser-Tyr-D-Ala-Leu-Arg-Pro-Gly-NH2 [[D-Ala^6]-GnRH]
- biological potency versus native hormone (GnRH): greater biological potency than the native hormone
